Measurements from the NIST ThermoML archive (doi:10.1021/acs.jced.7b00750).

Assay: xn = mol fraction of the nth substance listed
Conditions: 100 kPa, Liquid, Vibrating tube method

CNC(N)=O [methylurea] + O
Conditions	mass density [kg/m3]
274.15 K, x1 = 0.00244	1001.77
274.15 K, x1 = 0.00291	1002.12
274.15 K, x1 = 0.00483	1003.58
274.15 K, x1 = 0.00553	1004.11
274.15 K, x1 = 0.00799	1005.96
274.15 K, x1 = 0.00834	1006.21
274.15 K, x1 = 0.01081	1008.05
274.15 K, x1 = 0.01421	1010.56
275.15 K, x1 = 0.00244	1001.8
275.15 K, x1 = 0.00291	1002.15
275.15 K, x1 = 0.00483	1003.6
275.15 K, x1 = 0.00553	1004.13
275.15 K, x1 = 0.00799	1005.98
275.15 K, x1 = 0.00834	1006.23
275.15 K, x1 = 0.01081	1008.07
275.15 K, x1 = 0.01421	1010.58
276.15 K, x1 = 0.00244	1001.82
276.15 K, x1 = 0.00291	1002.17
276.15 K, x1 = 0.00483	1003.62
276.15 K, x1 = 0.00553	1004.14
276.15 K, x1 = 0.00799	1005.98
276.15 K, x1 = 0.00834	1006.24
276.15 K, x1 = 0.01081	1008.06
276.15 K, x1 = 0.01421	1010.58
277.15 K, x1 = 0.00244	1001.82
277.15 K, x1 = 0.00291	1002.17
277.15 K, x1 = 0.00483	1003.61
277.15 K, x1 = 0.00553	1004.13
277.15 K, x1 = 0.00799	1005.97
277.15 K, x1 = 0.00834	1006.23
277.15 K, x1 = 0.01081	1008.05
277.15 K, x1 = 0.01421	1010.54
278.15 K, x1 = 0.00244	1001.8
278.15 K, x1 = 0.00291	1002.15
278.15 K, x1 = 0.00483	1003.58
278.15 K, x1 = 0.00553	1004.1
278.15 K, x1 = 0.00799	1005.92
278.15 K, x1 = 0.00834	1006.18
278.15 K, x1 = 0.01081	1007.99
278.15 K, x1 = 0.01421	1010.45
278.15 K, x1 = 0.01662	1012.18
278.15 K, x1 = 0.019	1013.89
278.15 K, x1 = 0.02321	1016.84
278.15 K, x1 = 0.03185	1022.7
278.15 K, x1 = 0.04218	1029.47
278.15 K, x1 = 0.05184	1035.47
278.15 K, x1 = 0.06068	1040.78
278.15 K, x1 = 0.07071	1046.57
279.15 K, x1 = 0.00244	1001.76
279.15 K, x1 = 0.00291	1002.11
279.15 K, x1 = 0.00483	1003.53
279.15 K, x1 = 0.00553	1004.05
279.15 K, x1 = 0.00799	1005.86
279.15 K, x1 = 0.00834	1006.11
279.15 K, x1 = 0.01081	1007.92
279.15 K, x1 = 0.01421	1010.37
280.15 K, x1 = 0.00244	1001.71
280.15 K, x1 = 0.00291	1002.05
280.15 K, x1 = 0.00483	1003.47
280.15 K, x1 = 0.00553	1003.98
280.15 K, x1 = 0.00799	1005.78
280.15 K, x1 = 0.00834	1006.03
280.15 K, x1 = 0.01081	1007.83
280.15 K, x1 = 0.01421	1010.26
281.15 K, x1 = 0.00244	1001.65
281.15 K, x1 = 0.00291	1001.99
281.15 K, x1 = 0.00483	1003.39
281.15 K, x1 = 0.00553	1003.9
281.15 K, x1 = 0.00799	1005.7
281.15 K, x1 = 0.00834	1005.95
281.15 K, x1 = 0.01081	1007.72
281.15 K, x1 = 0.01421	1010.15
282.15 K, x1 = 0.00244	1001.57
282.15 K, x1 = 0.00291	1001.91
282.15 K, x1 = 0.00483	1003.31
282.15 K, x1 = 0.00553	1003.81
282.15 K, x1 = 0.00799	1005.59
282.15 K, x1 = 0.00834	1005.84
282.15 K, x1 = 0.01081	1007.61
282.15 K, x1 = 0.01421	1010.02
283.15 K, x1 = 0.00244	1001.47
283.15 K, x1 = 0.00291	1001.81
283.15 K, x1 = 0.00483	1003.2
283.15 K, x1 = 0.00553	1003.71
283.15 K, x1 = 0.00799	1005.48
283.15 K, x1 = 0.00834	1005.72
283.15 K, x1 = 0.01081	1007.48
283.15 K, x1 = 0.01421	1009.88
288.15 K, x1 = 0.00244	1000.82
288.15 K, x1 = 0.00291	1001.15
288.15 K, x1 = 0.00483	1002.51
288.15 K, x1 = 0.00553	1003
288.15 K, x1 = 0.00799	1004.72
288.15 K, x1 = 0.00834	1004.96
288.15 K, x1 = 0.01081	1006.67
288.15 K, x1 = 0.01421	1009.02
288.15 K, x1 = 0.01662	1010.63
288.15 K, x1 = 0.019	1012.22
288.15 K, x1 = 0.02321	1015
288.15 K, x1 = 0.03185	1020.53
288.15 K, x1 = 0.04218	1026.9
288.15 K, x1 = 0.05184	1032.59
288.15 K, x1 = 0.06068	1037.58
288.15 K, x1 = 0.07071	1043.01
298.15 K, x1 = 0.00244	998.69
298.15 K, x1 = 0.00291	999
298.15 K, x1 = 0.00483	1000.3
298.15 K, x1 = 0.00553	1000.76
298.15 K, x1 = 0.00799	1002.41
298.15 K, x1 = 0.00834	1002.63
298.15 K, x1 = 0.01081	1004.26
298.15 K, x1 = 0.01421	1006.48
298.15 K, x1 = 0.01662	1008.05
298.15 K, x1 = 0.019	1009.57
298.15 K, x1 = 0.02321	1012.2
298.15 K, x1 = 0.03185	1017.45
298.15 K, x1 = 0.04218	1023.52
298.15 K, x1 = 0.05184	1028.96
298.15 K, x1 = 0.06068	1033.74
298.15 K, x1 = 0.07071	1038.96
308.15 K, x1 = 0.00244	995.62
308.15 K, x1 = 0.00291	995.92
308.15 K, x1 = 0.00483	997.16
308.15 K, x1 = 0.00553	997.61
308.15 K, x1 = 0.00799	999.19
308.15 K, x1 = 0.00834	999.41
308.15 K, x1 = 0.01081	1000.97
308.15 K, x1 = 0.01421	1003.1
308.15 K, x1 = 0.01662	1004.61
308.15 K, x1 = 0.019	1006.07
308.15 K, x1 = 0.02321	1008.61
308.15 K, x1 = 0.03185	1013.65
308.15 K, x1 = 0.04218	1019.45
308.15 K, x1 = 0.05184	1024.66
308.15 K, x1 = 0.06068	1029.26
308.15 K, x1 = 0.07071	1034.27
323.15 K, x1 = 0.00244	989.55
323.15 K, x1 = 0.00291	989.84
323.15 K, x1 = 0.00483	991.02
323.15 K, x1 = 0.00553	991.45
323.15 K, x1 = 0.00799	992.95
323.15 K, x1 = 0.00834	993.16
323.15 K, x1 = 0.01081	994.63
323.15 K, x1 = 0.01421	996.66
323.15 K, x1 = 0.01662	998.09
323.15 K, x1 = 0.019	999.47
323.15 K, x1 = 0.02321	1001.87
323.15 K, x1 = 0.03185	1006.67
323.15 K, x1 = 0.04218	1012.19
323.15 K, x1 = 0.05184	1017.13
323.15 K, x1 = 0.06068	1021.48
323.15 K, x1 = 0.07071	1026.24
333.15 K, x1 = 0.00244	984.67
333.15 K, x1 = 0.00291	984.95
333.15 K, x1 = 0.00483	986.09
333.15 K, x1 = 0.00553	986.51
333.15 K, x1 = 0.00799	987.96
333.15 K, x1 = 0.00834	988.16
333.15 K, x1 = 0.01081	989.6
333.15 K, x1 = 0.01421	991.56
333.15 K, x1 = 0.01662	992.96
333.15 K, x1 = 0.019	994.26
333.15 K, x1 = 0.02321	996.6
333.15 K, x1 = 0.03185	1001.3
333.15 K, x1 = 0.04218	1006.7
333.15 K, x1 = 0.05184	1011.49
333.15 K, x1 = 0.06068	1015.72
333.15 K, x1 = 0.07071	1020.32
